Data taken from patent US6667313B1, “8-substituted-6-triflouromethyl-9-pyrido [3,2-G] quinoline compounds as androgen receptor modulators” (Ligand Pharmaceuticals Inc., priority 1999, dated 2003).
Read-outs that look alike come from different tables or passages of the source.

Legend:
human AR [1] = molecular target: T1, human AR (Homo sapiens, UniProt P10275); experiment: Co-transfection assay, AR agonist, CV-1 cells; type: cell-based; settings: for AR Agonist CV-1 Cells Efficacy (%): percent maximal response relative to reference agonist DHT
T1 sequence (P10275 1-920): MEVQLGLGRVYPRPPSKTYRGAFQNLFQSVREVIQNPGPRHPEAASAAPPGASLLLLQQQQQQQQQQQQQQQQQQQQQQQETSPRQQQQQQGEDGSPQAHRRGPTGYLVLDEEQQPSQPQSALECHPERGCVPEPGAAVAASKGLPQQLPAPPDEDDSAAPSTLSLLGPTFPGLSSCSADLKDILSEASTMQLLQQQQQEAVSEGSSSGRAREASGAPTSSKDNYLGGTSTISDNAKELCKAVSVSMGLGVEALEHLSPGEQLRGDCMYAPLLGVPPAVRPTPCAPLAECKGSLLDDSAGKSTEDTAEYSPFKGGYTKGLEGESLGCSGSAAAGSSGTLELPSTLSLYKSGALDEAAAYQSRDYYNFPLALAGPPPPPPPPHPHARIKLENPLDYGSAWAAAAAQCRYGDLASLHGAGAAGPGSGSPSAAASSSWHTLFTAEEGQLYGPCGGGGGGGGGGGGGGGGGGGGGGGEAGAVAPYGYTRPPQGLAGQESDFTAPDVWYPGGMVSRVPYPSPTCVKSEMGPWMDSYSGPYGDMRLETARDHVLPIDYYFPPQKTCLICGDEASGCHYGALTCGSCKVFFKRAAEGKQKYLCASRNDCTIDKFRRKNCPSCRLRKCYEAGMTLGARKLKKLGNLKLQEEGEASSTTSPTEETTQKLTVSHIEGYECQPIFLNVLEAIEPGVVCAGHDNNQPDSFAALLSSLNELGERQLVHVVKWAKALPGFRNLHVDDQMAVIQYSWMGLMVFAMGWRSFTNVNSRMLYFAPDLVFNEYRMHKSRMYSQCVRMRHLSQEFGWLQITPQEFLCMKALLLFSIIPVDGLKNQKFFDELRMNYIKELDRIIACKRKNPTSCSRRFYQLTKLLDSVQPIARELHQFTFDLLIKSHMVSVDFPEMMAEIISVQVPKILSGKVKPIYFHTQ
Text: (§1) The reporter plasmid, MTV-LUC, contains the cDNA for firefly luciferase (LUC) under control of themouse mammary tumor virus (MTV) long terminal repeat, a conditional promoter containing an androgen response element. See e.g., Berger et al. supra. In addition, pRS-β-Gal, coding for constitutive expression of E. coli β-galactosidase (β-Gal), was included as an internal control for evaluation of transfection efficiency and compound toxicity.
(§2) Three to four replicates were used for each sample.
(§3) After 40 hours, the cells were washed with PBS, lysed with a Triton X-100-based buffer and assayed for LUC and β-Gal activities using a luminometer or spectrophotometer, respectively. For each replicate, the normalized response (NR) was calculated as:
(§4) where β-Gal rate=β-Ga·1×10^−5/β-Gal incubation time.

human AR [2] = molecular target: T1, human AR; experiment: Co-transfection assay, AR antagonist, CV-1 cells (in presence of DHT); type: cell-based; settings: for AR Antagonist CV-1 Cells Efficacy (%): percent maximal inhibition, DHT at EC50
Text: as §1, §2, §3, §4

human AR [3] = molecular target: T1, human AR; experiment: AR whole cell competitive binding assay (3H-DHT), COS-1 cells
Experimental: AR Binding: For the whole cell binding assay, COS-1 cells in 96-well microtiter plates containing DMEM-10% FBS were transfected as described above with the following plasmid DNA: pRShAR (2 ng/well), pRS-β-Gal (50 ng/well) and pGEM (48 ng/well). Six hours after transfection, media was removed, the cells were washed with PBS and fresh media was added. The next day, the media was changed to DMEM-serum free to remove any endogenous ligand that might be complexed with the receptor in the cells.
Three replicates were used for each sample. […] The remaining media was removed, the cells were washed three times with PBS to remove unbound ligand, and cells were lysed with a Triton X-100-based buffer.
For the saturation analyses, the difference between the total binding and the nonspecific binding, normalized by the β-Gal rate, was defined as specific binding.
After correcting for non-specific binding, IC50 values were determined. […] The IC50 value was determined graphically from a log-logit plot of the data. The Ki values were determined by application of the Cheng-Prusoff equivuation to the IC50 values, the labeled ligand concentration and the Kd of the labeled ligand.

Compound	EC50 (human AR [1])	AR Agonist CV-1 Cells Efficacy (%) (human AR [1])	IC50 (human AR [2])	AR Antagonist CV-1 Cells Efficacy (%) (human AR [2])	Ki (human AR [3])	IC50 (human AR [2]; read-out: AR Antagonist CV-1 Cells Potency)	Ki (human AR [3]; COS-1 cells, 1 nM 3H-DHT, Cheng-Prusoff, read-out: AR Binding KI)
CCC1CCNc2cc3nc([S+](C)[O-])cc(C(F)(F)F)c3cc21 (racemic) [Compound 143, (R/S)-4-Ethyl-1,2,3,4-tetrahydro-8-methylsulfinyl-6-trifluoromethyl-9-pyrido[3.2-g]guinoline]	33 ± 3 nM	37 ± 9%	4690 nM	59%	34 nM		
CC1(C)CCc2cc3c(C(F)(F)F)c(F)c(Cl)nc3cc2N1 [Compound 107, 8-Chloro-7-fluoro-1,2,3,4-tetrahydro-2,2-dimethyl-6-trifluoromethyl-9-pyrido[3,2-g]quinoline]	1040 nM	29%	17 ± 3 nM	61 ± 8%	103 nM		
CCC1CCNc2cc3nc(C#N)cc(C(F)(F)F)c3cc21 (racemic) [Compound 129, (R/S)-8-Cyano-4-ethyl-1,2,3,4-tetrahydro-6-trifluoromethyl-9-pyrido[3,2-g]quinoline]			15 ± 5 nM	56 ± 25%	21 nM		
Cc1c2c(cc3c(C(F)(F)F)c(F)c(Cl)nc13)C(C)CC(C)(C)N2 (centres unmarked) [Compound 106, 8-Chloro-7-fluoro-1,2,3,4-tetrahydro-2,2,4,10-tetramethyl-6-trifluoro-methyl-9-pyrido[3,2-g]quinoline]		4 ± 2%	550 ± 15 nM	77 ± 6%	> 1000 nM		
CC1(C)CCc2cc3c(C(F)(F)F)c(F)c(F)nc3cc2N1 [Compound 113, 7,8-Difluoro-1,2,3,4-tetrahydro-2,2-dimethyl-6-trifluoromethyl-9-pyrido[3,2-g]quinoline]		12%	500 nM	37%	152 nM		
CC1(C)CCc2cc3c(cc2N1)N(C(=O)c1ccccc1)C(C#N)C=C3C(F)(F)F (racemic) [Compound 131, (R/S)-9-Benzoyl-8-cyano-1,2,3,4,8,9-hexahydro-2,2-dimethyl-6-trifluoromethyl-9-pyrido[3,2-g]quinoline]		0%	63 nM	91%	> 1000 nM		
CCC1CCNc2cc3nc(Cl)cc(C(F)(F)F)c3cc21 (racemic) [Compound 108, (R/S)-8-Chloro-4-ethyl-1,2,3,4-tetrahydro-6-trifluoromethyl-9-pyrido[3,2-g]guinoline]	73 ± 12 nM	36 ± 5%	50 ± 27 nM	28 ± 8%	81 ± 13 nM		
Cc1ccc(C(=O)N2c3cc4c(cc3C(C(F)(F)F)=CC2C#N)CCC(C)(C)N4)cc1 (racemic) [Compound 132, (R/S)-8-Cyano-1,2,3,4,8,9-hexahydro-2,2-dimethyl-9-p-toluoyl-6-trifluoromethyl-9-pyrido[3,2-g]quinoline]				89%		147 nM	863 nM
CCC1CCNc2cc3nc(Br)cc(C(F)(F)F)c3cc21 (racemic) [Compound 121, (R/S)-8-Bromo-4-ethyl-1,2,3,4-tetrahydro-6-trifluoromethyl-9-pyrido[3,2-g]quinoline]	22 ± 14 nM	53 ± 15%		8 ± 12%	55 nM		
CC1(C)CCc2cc3c(C(F)(F)F)c(F)cnc3cc2N1 [Compound 126, 7-Fluoro-1,2,3,4-tetrahydro-2,2-dimethyl-6-trifluoromethyl-9-pyrido[3,2-g]quinoline]		3 ± 5%	181 ± 73 nM	93 ± 4%	58 nM		
Cc1c2c(cc3c(C(F)(F)F)c(F)c(F)nc13)C(C)CC(C)(C)N2 (centres unmarked) [Compound 115, 7,8-Difluoro-1,2,3,4-tetrahydro-2,2,4,10-tetramethyl-6-trifluoromethyl-9-pyrido[3,2-g]quinoline]		0%	1140 nM	26%	> 1000 nM		
CCC1CCNc2cc3nc(F)cc(C(F)(F)F)c3cc21 (racemic) [Compound 116, (R/S)-4-Ethyl-8-fluoro-1,2,3,4-tetrahydro-6-trifluoromethyl-9-pyrido[3,2-g]quinoline]	37 ± 9 nM	60 ± 4%		0%	5 nM		
CCC1CCNc2cc3nccc(C(F)(F)F)c3cc21 (racemic) [Compound 125, (R/S)-4-Ethyl-1,2,3,4-tetrahydro-6-trifluoromethyl-9-pyrido[3,2-g]quinoline]		9 ± 7%	56 ± 17 nM	93 ± 1%	93 nM		
CCC1CCN(C)c2cc3nc(C#N)cc(C(F)(F)F)c3cc21 (racemic) [Compound 130, (R/S)-8-Cyano-4-ethyl-1,2,3,4-tetrahydro-1-methyl-6-trifluoromethyl-9-pyrido[3,2-g]quinoline]		2%	782 ± 546 nM	89 ± 1%	787 nM		
CCC1CCNc2cc3nc(SC)cc(C(F)(F)F)c3cc21 (racemic) [Compound 142, (R/S)-4-Ethyl-1,2,3,4-tetrahydro-8-methylthio-6-trifluoromethyl-9-pyrido[3,2-g]quinoline]	221 ± 108 nM	30 ± 12%	131 ± 64 nM	60 ± 7%	307 nM		
C[S+]([O-])c1nc2cc3c(cc2c(C(F)(F)F)c1F)CCC(C)(C)N3 (racemic) [Compound 137, (R/S)-7-Fluoro-1,2,3,4-tetrahydro-2,2-dimethyl-6-trifluoromethyl-8-methylsulfinyl-9-pyrido[3,2-g]quinoline]		10%	1340 nM	84%	> 1000 nM		
CC1(C)CCc2cc3c(C(F)(F)F)c(F)c(Br)nc3cc2N1 [Compound 119, 8-Bromo-7-fluoro-1,2,3,4-tetrahydro-2,2-dimethyl-6-trifluoromethyl-9-pyrido[3,2-g]quinoline]		6%	47 ± 27 nM	73 ± 7%	91 ± 68 nM		
CCC1CCNc2cc3nc(C(F)(F)F)cc(C(F)(F)F)c3cc21 (racemic) [Compound 149, (R/S)-4-Ethyl-1,2,3,4-tetrahydro-6,8-di(trifluoromethyl)-9-pyrido[3,2-g]quinoline]			117 ± 31 nM		301 nM		
CCC1CCNc2cc3nc(Cl)c(F)c(C(F)(F)F)c3cc21 (racemic) [Compound 109, (R/S)-8-Chloro-4-ethyl-7-fluoro-1,2,3,4-tetrahydro-6-trifluoromethyl-9-pyrido[3,2-g]guinoline]	89 ± 26 nM	35 ± 12%	39 ± 23 nM	51 ± 9%	119 ± 65 nM		
